Data: ChEMBL document CHEMBL1806349, “Improved performance by replacing iminodiacetic residues with glyceryl residues in symmetrically branched oligoglycerols” (Bioorg Med Chem Lett, 2011)
≈ marks a conversion by molar mass, not a printed value.

Key:
[1] = Solubility of the compound in water; type: physicochemical
[2] = AUC (0 to 24 hrs) in iv dosed Crl:CD(SD) rat; type: ADME, organism-based; set-up: time < 24 hr, route intravenous; details: plasma

O=C(CCC(=O)NC(COC(CO)CO)COC(CO)CO)NCCCCCCCCNC(=O)c1ccccc1
solubility [1]: 350 mM (≈ 199 mg/mL)

O=C(CCC(=O)N(CC(=O)NC(CO)CO)CC(=O)NC(CO)CO)NCCCCCCCCNC(=O)c1ccccc1
solubility [1]: 21 mM (≈ 12.8 mg/mL)

CCCCCCCCCCCCCCCCCC(=O)OCC(CO[P+]([O-])(O)OCCNC(=O)CCC(=O)N(CC(=O)NC(COC(COC(CO)CO)COC(CO)CO)COC(COC(CO)CO)COC(CO)CO)CC(=O)NC(COC(COC(CO)CO)COC(CO)CO)COC(COC(CO)CO)COC(CO)CO)OC(=O)CCCCCCCCCCCCCCCCC (centres undefined)
AUC(0-t) at 24 h [2]: 95100 ng·h/mL

CCCCCCCCCCCCCCCCCC(=O)OCC(CO[P+]([O-])(O)OCCNC(=O)CCC(=O)N(CC(=O)N(CC(=O)NC(COC(CO)CO)COC(CO)CO)CC(=O)NC(COC(CO)CO)COC(CO)CO)CC(=O)N(CC(=O)NC(COC(CO)CO)COC(CO)CO)CC(=O)NC(COC(CO)CO)COC(CO)CO)OC(=O)CCCCCCCCCCCCCCCCC (centres undefined)
AUC(0-t) at 24 h [2]: 53100 ng·h/mL
